Data as given in US9539309B2, “Controlled release of growth factors and signaling molecules for promoting angiogenesis” (President and Fellows of Harvard College, priority 2008, dated 2017).

Columns and labels:
[1] = system: cells in small intestines; assay: in vivo effect of DAPT on the cells in small intestines (H&E, alcian blue, Ki67, HES-1 staining); parameters: species or system mice
Source text: FIG. 6 is a series of photomicrographs showing the effect of DAPT on gastrointestinal tissue. In vivo model was used to test the effect of DAPT delivered from alginate gel system and from intraperitoneal injection on the cells in small intestines. gel: alginate gel. ip: intraperitoneal injection. H&E, alcian blue, Ki67 and HES-1 are the four different staining methods to characterize the crypt cells in small intestines. Ki-67 was used to stain the proliferative cells. Loss of Notch signaling can alter the proliferation rate of crypt cells. HES-1 staining was to examine the expression of a known Notch target gene in crypts. Alcian blue staining was to examine the deposition of glycosaminoglycan molecules. Loss of Notch signaling can result in more deposition of glycosaminoglycan molecules. Expression of HES-1 (hairy and enhancer of split 1), a member of basic helix-loop-helix family of transcription factors and a known Notch target gene in crypts was examined. Loss of Notch signaling can alter the proliferation rate of crypt cells, as shown by Ki-67 staining the proliferative cells. In addition, Notch inhibition has been reported to alter the balance between proliferative crypt cells and goblet cells, resulting in more deposition of glycosaminoglycan molecules, as characterized by alcian blue staining.

[2] = system: Endothelial cells isolated from diabetics; assay: in vitro sprouting model with endothelial cells isolated from diabetics; format: cell-based
Source text: In addition, there is an optimal VEGF concentration to induce most sprouts.
Endothelial cells isolated from diabetics produce more sprouts in the presence of a combination of both gamma-secretase inhibitors with VEGF. (FIG. 2, *P<0.05) than with either of them alone, which implies the need of a combination of both growth factor and DAPT.

[3] = DAPT delivered via intraperitoneal injection

Molecule | cell differentiation at distant sites (small intestines) ([1]; DAPT delivered from alginate gel system, compared with intraperitoneal injection, FIG. 6) | region of effects ([1]; DAPT delivered from the gel system) | Notch target gene expression, HES-1 staining [1, 3] | glycosaminoglycans, alcian blue staining [1, 3] | intestinal structure, H&E staining [1, 3] | proliferating cells, Ki67 staining [1, 3] | effects at distant organs (e.g., small intestines) ([1]; DAPT delivered via intraperitoneal injection, goes into the systemic circulation) | concentration of VEGF that gives the most sprouts if used alone ([2]; VEGF alone, FIG. 3) [ng/mL] | response to VEGF, capability of forming sprouts ([2]; endothelial cells from diabetics compared to age-matched non-diabetics, FIG. 1, P<0.05)
C[C@H](NC(=O)Cc1cc(F)cc(F)c1)C(=O)N[C@H](C(=O)OC(C)(C)C)c1ccccc1 [DAPT, N—[N-(3,5-Difluorophenacetyl-L-alanyl)]-S-phenylglycine t-butyl ester] | does not alter cell differentiation at distant sites as much | only has effects in the local region | downregulation of Notch target gene expression | presence of extra glycosaminoglycans | disrupts normal intestinal structure | loss of proliferating cells | led to adverse effects at distant organs | – | –
VEGF | – | – | – | – | – | – | – | 50 | reduced response
